Measured values reported in US10537602B2, “Feed for fish” (NUTRECO IP ASSETS B.V., priority 2006, dated 2020).

Assays:
Type in all cases: in vivo
[1] = system: Atlantic salmon (Salmo salar); experiment: Example 2 feeding study: growth and feed conversion of fish on feed with carvacrol or Salvia lavandulifolia extract; conditions: for Feed conversion ratio / Specific growth rate / Final weight: 82 days, Salvia = Salvia lavandulifolia extract; for Final weight: initial weight about 199 g, sea water 12° C., triplicate
Protocol: (§1) Growth rate is expressed as percentage increase in body mass from day to day (Specific Growth Rate, SGR). This is calculated as:
(§2) [formula] FinalW=final weight InitW=initial weight Days=time from measuring initial weight to final weight
(§3) The common term to describe this is Feed Conversion Ratio (FCR) defined as: FCR=Amount of feed fed (kg)/Net growth of the fish (kg)
(§4) Control and comparison feeds were prepared as in Example 1. Salvia lavandulifolia salvia extract (CAS 8016-65-7) was used.
(§5) The feed was fed to Atlantic salmon (Salmo salar) weighing 199 g (±2.4 g) at the onset of the study. The fish were stocked in tanks (1 m×1 m). There were 35 fish in each tank. Sea water temperature was 12° C. The fish were fed for 82 days. The study was run in triplicate.

[2] = system: Atlantic salmon (Salmo salar); experiment: Example 3 apparent digestibility of protein, C16:0, saturated fatty acids and total lipid; conditions: for ADC protein (%) / ADC C16:0 (%) / ADC saturated fatty acids (%) / ADC total lipid (%): added as 100% oil, 96 days, one tank, Salvia lavandulifolia; for ADC protein (%): 8.9° C.
Protocol: (§6) To achieve the above objects, additives that can increase the digestibility of fat and or protein are of value. This can be measured by the “Apparent Digestibility Coefficient”, calculated as: […]
(§7) Yttrium is added to the diet for the purpose of calculating ADC, but is otherwise not a necessary component of fish feed.
Control feed was prepared from South-American fish meal (526.2 g), soybean meal (40.0 g), corn gluten (79.0 g), wheat (120.4 g), South-American fish oil (230.3 g), mineral and vitamin premixes (2.5 g), yttrium premix (1.0 g), and astaxanthin preparation (0.6 g). Pellets were extruded using the process explained above and coated with the fish oil.
Test feeds were prepared containing carvacrol and/or salvia extract (Salvia lavandulifolia). Carvacrol and/or salvia extract were each added as 100% oil. Two different inclusion levels of separate carvacrol and salvia extract (0.5 g/kg and 1.0 g/kg) were tested.
Two test feeds were prepared with a combination of carvacrol and salvia extract. The inclusion levels were 1.0 g carvacrol and 0.2 g/kg salvia extract, and 0.5 g/kg carvacrol and 0.5 g/kg salvia extract, respectively. The carvacrol oil and/or salvia extract was mixed with the fish oil and coated onto the surface of the pellets by vacuum coating after drying of the pellets.
Pellet size was 3 mm for all feeds.
The feed was fed to Atlantic salmon (Salmo salar) weighing 156 g (±13 g) at the onset of the study. The fish was stocked in tanks holding 100 L water. There were 25 fish in each tank. Sea water temperature was 8.9° C.±0.2° C. The fish were fed for 96 days. The study was run with four control groups and one tank each for the different inclusion levels of carvacrol, salvia extract or combined carvacrol and salvia.
Apparent digestibility was determined for protein, the saturated fatty acid C16:0, the sum of all saturated fatty acids and the total lipid.

[3] = system: Atlantic salmon (Salmo salar); experiment: Example 2 lipid digestibility (Apparent Digestibility Coefficient, yttrium marker); conditions: for ADC (%) lipid: Example 2, Salvia = Salvia lavandulifolia extract
Protocol: as §6, §7, §4, §5

[4] = system: Atlantic salmon (Salmo salar); experiment: Example 1 feeding study: growth and feed conversion of fish on feed with carvacrol or Salvia officinalis extract; conditions: for Final weight / Feed conversion ratio / Specific growth rate: 67 days, triplicate, Salvia = Salvia officinalis extract; for Final weight: initial weight about 170 g, sea water 11.8° C.
Protocol: as §1, §2, §3
A control feed was prepared from fish meal (407.4 g), soybean meal (55.8 g), corn gluten (196.1 g), wheat (88.0 g), fish oil (247.3 g), mineral and vitamin premixes (3.8 g), yttrium premix (1.0 g, used to measure lipid digestibility as discussed below) and astaxanthin preparation (0.6 g). Pellets were extruded using the process explained above and coated with the fish oil.
Test feeds containing 0.1 wt % and 0.2 wt % carvacrol formulation (containing 50 wt % carvacrol and 50 wt % silica carrier) were prepared. The amount of active substance was 500 and 1000 mg per kg feed, respectively. In the comparison feeds, the amount of wheat was reduced to 87.0 g and 86.0 g respectively. The carvacrol formulation was added with the other microingredients to the mixer before preconditioning.
Test feeds containing 0.1 wt % and 0.2 wt % formulation of Salvia officinalis salvia extract (containing 50 wt % salvia extract and 50 wt % silica carrier) were prepared in a similar way.
The feed was fed to Atlantic salmon (Salmo salar) weighing 169 g (±3 g) at the onset of the study. The fish was stocked in tanks (1 m×1 m). There were 30 fish in each tank. Sea water temperature was 11.8° C. (±0.5° C.). The fish were fed for 67 days. The study was run in triplicate.

[5] = with increasing amounts in feed, Example 2, in words
[6] = with increasing amounts in feed, Example 3, in words
[7] = with increasing amounts in feed, Example 1, in words

Cc1ccc(C(C)C)cc1O [Carvacrol, 2-methyl-5(1-methylethyl)-phenol]
Feed conversion ratio ([1]; 0.05 wt % additive in feed): 0.68 | Specific growth rate ([1]; 0.05 wt % additive in feed): 1.16 | Final weight ([1]; 0.05 wt % additive in feed): 512 g | Feed conversion ratio ([1]; 0.1 wt % additive in feed): 0.70 | Specific growth rate ([1]; 0.1 wt % additive in feed): 1.13 | Final weight ([1]; 0.1 wt % additive in feed): 503 g | feed utilisation [1, 5]: improved | fish growth [1, 5]: increased | ADC protein (%) ([2]; 0.05 wt % additive in feed): 88.8% | ADC C16:0 (%) ([2]; 0.05 wt % additive in feed): 75.3% | ADC saturated fatty acids (%) ([2]; 0.05 wt % additive in feed): 75.5% | ADC total lipid (%) ([2]; 0.05 wt % additive in feed): 89.2% | ADC protein (%) ([2]; 0.10 wt % additive in feed): 87.6% | ADC C16:0 (%) ([2]; 0.10 wt % additive in feed): 74.0% | ADC saturated fatty acids (%) ([2]; 0.10 wt % additive in feed): 74.4% | ADC total lipid (%) ([2]; 0.10 wt % additive in feed): 89.2% | lipid digestibility [2, 6]: increased | protein digestibility [2, 6]: increased | ADC (%) lipid ([3]; 0.05 wt % additive in feed): 95.78% | ADC (%) lipid ([3]; 0.1 wt % additive in feed): 97.65% | lipid digestibility [3, 5]: increased | Final weight ([4]; 0.05 wt % additive in feed): 339 ± 18 g | Feed conversion ratio ([4]; 0.05 wt % additive in feed): 0.91 ± 0.05 | Specific growth rate ([4]; 0.05 wt % additive in feed): 1.04 ± 0.05 | Final weight ([4]; 0.1 wt % additive in feed): 354 ± 6 g | Feed conversion ratio ([4]; 0.1 wt % additive in feed): 0.87 ± 0.03 | Specific growth rate ([4]; 0.1 wt % additive in feed): 1.09 ± 0.03 | feed utilisation [4, 7]: improved | fish growth [4, 7]: increased
